Test results reported in article PMC6278539, “Selective Inhibition of Human AKR1B10 by n-Humulone, Adhumulone and Cohumulone Isolated from Humulus lupulus Extract” (Molecules, 2018).

Columns and labels:
AKR1B10 [1] = molecular target: T1, AKR1B10 (Homo sapiens, UniProt O60218); experiment: AKR1B10-mediated farnesal reduction inhibition; format: biochemical; details: for IC50 / Ki: AKR1B10, Farnesal [5 µM], mean ± SD; for Mode of inhibition: AKR1B10, farnesal reduction
T1 construct: 6xHis; made in house; host or cells: E. coli BL21 (DE3)
T1 sequence (O60218 whole entry): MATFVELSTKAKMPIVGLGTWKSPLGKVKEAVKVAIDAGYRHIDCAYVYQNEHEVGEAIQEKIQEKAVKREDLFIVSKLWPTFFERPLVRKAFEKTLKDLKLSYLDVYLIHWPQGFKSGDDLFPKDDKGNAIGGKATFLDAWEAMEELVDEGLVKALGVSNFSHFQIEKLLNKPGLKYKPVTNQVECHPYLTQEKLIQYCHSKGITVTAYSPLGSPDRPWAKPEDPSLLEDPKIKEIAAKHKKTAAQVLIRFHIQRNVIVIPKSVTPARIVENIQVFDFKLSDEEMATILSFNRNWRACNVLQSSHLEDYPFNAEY
Protocol: (§1) The carbonyl-reducing enzymes AKR1A1, AKR1B1, AKR1B10 were prepared in an Escherichia coli expression system according to previously published methods: plasmids of AKR1A1 and AKR1B1 were friendly gifts from Prof. Dr. Vladimir Wsol and Dr. Nina Kassner; information about production and purification of AKR1B10 [19] has been published before (sequences of all obtained plasmids containing the specific inserts were verified by sequencing (MWG Eurofins)). The plasmids were then transformed in E. coli BL21 (DE3) cells. For overexpression of 6× His-tagged enzymes, a 400 mL culture (containing the appropriate antibiotic; plasmid dependent) was grown to optical density of 0.6 at 600 nm at 37 °C. Expression was induced by adding isopropyl-1-thio-galactopyranoside to the culture medium (final concentration of 1 mM). After 3 h, cells were harvested by centrifugation (6000× g, 15 min) and resuspended in 20 mL PBS-I buffer (20 mM Na2H2PO4, 500 mM NaCl, 10 mM imidazole, 10% v/v glycerol, pH 7.4). Cell disruption was performed by ultrasonication with cooling on ice to avoid heating. The sample was subsequently centrifuged at 100,000× g at 4 °C for 1 h. The obtained supernatants containing the respective enzymes were purified using Ni-affinity chromatography (ÄKTA-Purifier; Amersham Pharmacia, Uppsala, Sweden) using PBS-II buffer (20 mM Na2H2PO4, 500 mM NaCl, 500 mM imidazole, 10% v/v glycerol, pH 7.4). Purification progress was monitored by SDS-PAGE of the obtained fractions (not shown). Enzyme concentrations were determined using a Qubit 2.0 fluorometric quantitation system (Life Technologies, Carlsbad, CA, USA) according to the manufacturer’s instructions.
(§2) Catalytic properties were determined by measuring the decrease in absorbance at 340 nm (Cary 100 scan photometer, Varian, CA, USA). A reaction mixture without inhibitor consisted of different concentrations of DL-glyceraldehyde or farnesal, 200 μM NADPH, 0.1 M NaH2PO4 buffer (pH 7.4) and an appropriate amount of enzyme in a total assay volume of 0.8 mL. Final enzyme concentrations in the assay ranged from 222 nM (AKR1A1) to 899 nM (AKR1B10). KM values were obtained by fitting the kinetic data (mean ± SD from at least three experiments) to the Michaelis‒Menten model, as implemented in GraphPad Prism6 (GraphPad Software Inc., La Jolla, CA, USA).
(§3) For inhibition studies, stock solutions of inhibitors were prepared in H2O (iso-α-acid mixture) and DMSO (α-acid mixture and compounds 1–3 purified from the same mixture). […] When collecting data for dose–response curves initial velocities of DL-glyceraldehyde or farnesal reduction (substrate concentration at KM) in the presence of inhibitors were assayed as described above. The percentage of inhibition was calculated considering the activity in the absence of inhibitor to be 100%.
(§4) For IC50 determination, experimental data were normalised and fitted to a sigmoidal curve as implemented in GraphPad Prism6 (GraphPad Software Inc., La Jolla, CA, USA). Whenever tight-binding inhibition was observed, the inhibition constant Ki was determined by fitting inhibition data to the Morrison equation [43]. In order to verify the inhibitory potency, farnesal as an enzyme-specific physiological substrate for AKR1B10 (farnesal; KM = 5 µM) was used to determine inhibition parameters. Enzyme inhibition parameters were assayed as described above. The inhibition mechanism of each compound for AKR1B10 was analysed by plotting IC50-values at different substrate concentrations (at least five inhibitor and substrate concentrations). All data obtained were plotted and analysed using GraphPad Prism6 (GraphPad Software Inc., La Jolla, CA, USA).

AKR1B1 = molecular target: T2, AKR1B1 (Homo sapiens, UniProt P15121); experiment: AKR1B1 inhibition, DL-glyceraldehyde reduction (NADPH decrease at 340 nm); format: biochemical; details: AKR1B1, Glyceraldehyde [50 µM]
T2 construct: 6xHis; made in house; host or cells: E. coli BL21 (DE3)
Protocol: as §1, with “The sample was subsequently centrifuged at 100,000× g at 4 °C for 1 h. The obtained supernatants containing the respective enzymes were purified using Ni-affinity chromatography (ÄKTA-Purifier; Amersham Pharmacia, Uppsala, Sweden) using PBS-II buffer (20 mM Na2H2PO4, 500 mM NaCl, 500 mM imidazole, 10% v/v glycerol, pH 7.4).” left out
(§5) Catalytic properties were determined by measuring the decrease in absorbance at 340 nm (Cary 100 scan photometer, Varian, CA, USA). […]
(§6) For inhibition studies, stock solutions of inhibitors were prepared in H2O (iso-α-acid mixture) and DMSO (α-acid mixture and compounds 1–3 purified from the same mixture). […] The percentage of inhibition was calculated considering the activity in the absence of inhibitor to be 100%. […]
For IC50 determination, experimental data were normalised and fitted to a sigmoidal curve as implemented in GraphPad Prism6 (GraphPad Software Inc., La Jolla, CA, USA). Whenever tight-binding inhibition was observed, the inhibition constant Ki was determined by fitting inhibition data to the Morrison equation [43]. […]

AKR1B10 [2] = molecular target: T1, AKR1B10; experiment: AKR1B10 inhibition, DL-glyceraldehyde reduction (NADPH decrease at 340 nm); format: biochemical; details: for IC50 / Ki: AKR1B10, Glyceraldehyde [4.0 mM], mean ± SD; for Ki: read-out: Ki (Morrison); for Ratio AKR1A1/AKR1B10 / Ratio AKR1B1/AKR1B10: IC50-ratio, glyceraldehyde as substrate
Protocol: as §1, §2, §3
Initially, the half maximal inhibitory concentrations (IC50 values) were determined for each inhibitor in presence of each enzyme, using the shared substrate DL-glyceraldehyde (set to their specific KM; 3.6 mM, 50 μM and 4 mM for AKR1A1, AKR1B1 and AKR1B10, respectively) to assess specificity amongst the structurally similar members of the AKR-superfamily.
as §4, with “All data obtained were plotted and analysed using GraphPad Prism6 (GraphPad Software Inc., La Jolla, CA, USA).” left out

AKR1A1 = molecular target: T3, AKR1A1 (Homo sapiens, UniProt P14550); experiment: AKR1A1 inhibition, DL-glyceraldehyde reduction (NADPH decrease at 340 nm); format: biochemical; details: AKR1A1, Glyceraldehyde [3.6 mM]
T3 construct: 6xHis; made in house; host or cells: E. coli BL21 (DE3)
T3 sequence (P14550 1-325): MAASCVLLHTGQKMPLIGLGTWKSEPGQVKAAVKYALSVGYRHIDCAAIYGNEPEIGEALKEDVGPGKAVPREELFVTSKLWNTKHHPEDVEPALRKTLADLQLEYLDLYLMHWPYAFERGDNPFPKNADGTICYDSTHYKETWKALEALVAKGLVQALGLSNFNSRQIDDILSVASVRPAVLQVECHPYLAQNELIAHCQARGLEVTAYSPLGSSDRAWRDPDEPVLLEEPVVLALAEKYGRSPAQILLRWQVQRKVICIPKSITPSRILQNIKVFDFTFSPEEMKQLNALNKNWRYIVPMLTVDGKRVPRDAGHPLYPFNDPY
Protocol: The carbonyl-reducing enzymes AKR1A1, AKR1B1, AKR1B10 were prepared in an Escherichia coli expression system according to previously published methods: plasmids of AKR1A1 and AKR1B1 were friendly gifts from Prof. Dr. Vladimir Wsol and Dr. Nina Kassner; information about production and purification of AKR1B10 [19] has been published before (sequences of all obtained plasmids containing the specific inserts were verified by sequencing (MWG Eurofins)). The plasmids were then transformed in E. coli BL21 (DE3) cells. For overexpression of 6× His-tagged enzymes, a 400 mL culture (containing the appropriate antibiotic; plasmid dependent) was grown to optical density of 0.6 at 600 nm at 37 °C. […] Purification progress was monitored by SDS-PAGE of the obtained fractions (not shown). Enzyme concentrations were determined using a Qubit 2.0 fluorometric quantitation system (Life Technologies, Carlsbad, CA, USA) according to the manufacturer’s instructions.
as §5, §6

AKR1B10 [3] = system: AKR1B10; set-up: method as in PMID 23123477; details: cited from earlier work
AKR1B10 [4] = molecular target: AKR1B10; set-up: method as in PMID 27665999; details: cited from earlier work
cyclooxygenase-1 = system: cyclooxygenase-1; set-up: method as in PMID 10631313; details: cited from earlier work
cyclooxygenase-2 = molecular target: cyclooxygenase-2; set-up: method as in PMID 10631313; details: cited from earlier work

| Structure (SMILES) | IC50 (AKR1B10 [1]) [µM] | Ki (AKR1B10 [1]) [µM] | Mode of inhibition (AKR1B10 [1]) | IC50 (AKR1B1) [µM] | IC50 (AKR1B10 [2]) [µM] | Ki (AKR1B10 [2]) [µM] | Ratio AKR1A1/AKR1B10 (AKR1B10 [2]) | Ratio AKR1B1/AKR1B10 (AKR1B10 [2]) | IC50 (AKR1A1) [µM] | IC50 (AKR1B10 [3]) [µM] | Ki (AKR1B10 [4]) [µM] | inhibition of cyclooxygenase-1 (cyclooxygenase-1) | IC50 (cyclooxygenase-2) [µM] |
| --- | --- | --- | --- | --- | --- | --- | --- | --- | --- | --- | --- | --- | --- |
| CC(C)=CCC1=C(O)C(O)(CC=C(C)C)C(=O)C(C(=O)C(C)C)=C1O (stereo in doubt) [Compound 2, cohumulone] | 29.8 ± 1.72 | 16.5 ± 1.74 | non-competitive | > 125 | 1.35 ± 0.07 | 0.7 ± 0.09 | >74 | >93 | > 100 |  |  |  |  |
| CC(C)=CCc1c(O)cc2oc3cc(O)c(O)c(CC=C(C)C)c3c(=O)c2c1O [γ-mangostin] |  |  |  |  |  |  |  |  |  | 0.018 |  |  |  |
| CCCCC/C=C\C/C=C\C/C=C\C/C=C\CCCC(=O)O [arachidonic acid] |  |  |  |  |  |  |  |  |  |  | 0.26 |  |  |
| CCC(C)C(=O)C1=C(O)C(CC=C(C)C)=C(O)[C@](O)(CC=C(C)C)C1=O (stereo partly drawn) [Compound 1, adhumulone] | 29.3 ± 1.53 | 16.8 ± 1.33 | competitive | > 125 | 5.41 ± 0.42 | 3.27 ± 0.52 | ≥19 | >23 |  |  |  |  |  |
| CC(C)=CCC1C(=O)C(C(=O)CC(C)C)=C(O)C(O)(CC=C(C)C)C1=O (stereo not drawn) [Compound 3, n-humulone] | 7.78 ± 0.43 | 3.94 ± 0.33 | non-competitive | > 125 | 1.94 ± 0.1 | 0.98 ± 0.12 | >52 | >64 | > 100 |  |  | not inhibited at concentrations below 10 µM | 1.6 |
